From publication PMC3997483, “Aminostyrylbenzofuran Directly Reduces Oligomeric Amyloid-β and Reverses Cognitive Deficits in Alzheimer Transgenic Mice” (PLoS ONE, 2014)

How the values were obtained:
[1] = Metabolic stability in liver microsomes; format: in vitro ADME; settings: dog liver microsomes
APP/PS1 TG mice = assay: Morris water maze, prophylactic trial; format: in vivo, mouse; settings: for swimming time % within the target quadrant (probe trial): APP/PS1 TG mice, vehicle TG 23.4%, WT 44.3%; for Latency (hidden platform): TG mice
Method: Behavioral tests were performed in the following sequence: Y-maze (day 1), Morris water maze (day 4 to 12) and contextual fear conditioning (day 26 to 27). To reduce stress, contextual fear conditioning was carried out 2 weeks after the Morris water maze task. In the therapeutic trial, APP/PS1 TG mice were treated with KMS88009 (30 mg/kg/day) for 3 months from 9 to 12 months of age. Y-maze tests short-term spatial working memory. Y-maze is a 3-armed (40 L×10 W×12 H cm) horizontal maze in which the arms are symmetrically disposed at 120° angles from each other. Mice were placed at the end of one arm and allowed to move freely through the maze during a 5-min session. Arm entry was considered completed when the hind paws of the mouse were completely placed in the arm. Alternation was defined as successive entries into the 3 arms on overlapping triplet sets. The series of arm entries was recorded via video recorders. The percentage of alternation was defined according to the following equation: % alternation = [(number of alternations)/(total arm entries - 2)] ×100. Mice performing fewer than 7 alternations in 5 min were excluded from the subsequent analysis to accurately determine alternation scores. Morris water maze was used to measure spatial learning and memory. A stainless pool apparatus with a diameter of 120 cm was used. A clear escape platform (circle, 12×12 cm) was located 1.0 cm below (hidden) the water surface containing white nontoxic paint. The temperature of water was kept constant throughout the experiment (21±1°C). The visual cues, for mice to recognize the environment and direction, are placed on the walls around the pool. The training was consisted of 8 consecutive days of testing with 4 trials per day. When a mouse was located on the escape platform, it was permitted to remain on the platform for 15 sec. […] Then the subject was returned to its home cage and allowed to dry up after each trial. The platform location was kept constant and the starting position was varied. Each mouse was placed in the water with their nose pointing toward the wall at one of the starting points in a random manner. During each trial session, the time taken to find the hidden platform (latency) was recorded using a video camera-based Ethovision System (Nodulus, Nertherlands). On the 9th day, each mouse was tested on a probe trial. The platform was removed from pool and the mice were allowed to swim for 60 sec to search. Swimming time was recorded during mice were in the pool quadrant where the platform had been previously located. Mice, which float or jump from platform, were eliminated from the experiment since these responses may be incompatible with the behaviors needed to locate and learn the platform position. In addition, animals with difficulty in swimming were also excluded from this study. Fear conditioning task was measured to test the ability to learn and remember an association between an aversive experience and environmental cues. Contextual fear conditioning evaluation was performed using a fear-conditioning chamber (Courlbourn, USA) equipped with a computer-controlled fear conditioning system (FreActimetrics, USA). On the first day of training, each mouse was placed in the conditioning chamber and left to adjust for 2 min. Fear conditioning test was performed with conditional stimulus (CS) of sound (75 dB) for 20 sec followed by unconditional stimulus (US) of electric foot-shock (0.5 mA) for the last 2 sec in CS. After 1 min, the subject was returned to its home cage. After 24 hr, retention test was performed. […] Freezing response was measured without CS or US. Freezing behavior was defined as the complete absence of any movement except for respiration and heartbeat. Animals with no response to the foot-shock during training were excluded from the analysis. Data analyses including recordings of all behavioral responses were performed by keeping research colleagues blind.

COc1ccc2cc(C=Cc3ccc(N(C)C)cc3)oc2c1 [KMS88009, 6-methoxy-2-(4-dimethylaminostyryl) benzofuran]
half-life at 5 µM [1]: 21.3 ± 0.8 min
remaining at 1 h, 5 µM ([1]; read-out: Remaining % of parent molecule at 60 min.): 14.8 ± 0.2%
swimming time % within the target quadrant (probe trial) (APP/PS1 TG mice; PO 10 mg/kg/day): 40.4%
swimming time % within the target quadrant (probe trial) (APP/PS1 TG mice; PO 30 mg/kg/day): 39.7%
swimming time % within the target quadrant (probe trial) (APP/PS1 TG mice; PO 100 mg/kg/day): 37.6%
Latency (hidden platform) (APP/PS1 TG mice; Day 1, dose group + (10 mg/kg/day)): 50.5 ± 2.1 s
Latency (hidden platform) (APP/PS1 TG mice; Day 1, dose group ++ (30 mg/kg/day)): 49.2 ± 2.4 s
Latency (hidden platform) (APP/PS1 TG mice; Day 1, dose group +++ (100 mg/kg/day)): 48.3 ± 3.0 s
Latency (hidden platform) (APP/PS1 TG mice; Day 2, dose group + (10 mg/kg/day)): 39.8 ± 2.7 s
Latency (hidden platform) (APP/PS1 TG mice; Day 2, dose group ++ (30 mg/kg/day)): 38.3 ± 3.0 s
Latency (hidden platform) (APP/PS1 TG mice; Day 2, dose group +++ (100 mg/kg/day)): 37.6 ± 5.2 s
Latency (hidden platform) (APP/PS1 TG mice; Day 3, dose group + (10 mg/kg/day)): 31.1 ± 2.5 s
Latency (hidden platform) (APP/PS1 TG mice; Day 3, dose group ++ (30 mg/kg/day)): 30.6 ± 3.3 s
Latency (hidden platform) (APP/PS1 TG mice; Day 3, dose group +++ (100 mg/kg/day)): 34.3 ± 4.3 s
Latency (hidden platform) (APP/PS1 TG mice; Day 4, dose group + (10 mg/kg/day)): 35.1 ± 2.8 s
Latency (hidden platform) (APP/PS1 TG mice; Day 4, dose group ++ (30 mg/kg/day)): 32.9 ± 3.0 s
Latency (hidden platform) (APP/PS1 TG mice; Day 4, dose group +++ (100 mg/kg/day)): 32.0 ± 4.0 s
Latency (hidden platform) (APP/PS1 TG mice; Day 5, dose group + (10 mg/kg/day)): 41.8 ± 3.2 s
Latency (hidden platform) (APP/PS1 TG mice; Day 5, dose group ++ (30 mg/kg/day)): 36.3 ± 4.2 s
Latency (hidden platform) (APP/PS1 TG mice; Day 5, dose group +++ (100 mg/kg/day)): 29.6 ± 4.1 s
Latency (hidden platform) (APP/PS1 TG mice; Day 6, dose group + (10 mg/kg/day)): 32.9 ± 1.9 s
Latency (hidden platform) (APP/PS1 TG mice; Day 6, dose group ++ (30 mg/kg/day)): 29.3 ± 3.9 s
Latency (hidden platform) (APP/PS1 TG mice; Day 6, dose group +++ (100 mg/kg/day)): 33.4 ± 4.8 s
Latency (hidden platform) (APP/PS1 TG mice; Day 7, dose group + (10 mg/kg/day)): 31.7 ± 2.6 s
Latency (hidden platform) (APP/PS1 TG mice; Day 7, dose group ++ (30 mg/kg/day)): 28.6 ± 3.5 s
Latency (hidden platform) (APP/PS1 TG mice; Day 7, dose group +++ (100 mg/kg/day)): 30.0 ± 2.6 s
Latency (hidden platform) (APP/PS1 TG mice; Day 8, dose group + (10 mg/kg/day)): 26.6 ± 3.0 s
Latency (hidden platform) (APP/PS1 TG mice; Day 8, dose group ++ (30 mg/kg/day)): 25.6 ± 3.0 s
Latency (hidden platform) (APP/PS1 TG mice; Day 8, dose group +++ (100 mg/kg/day)): 27.9 ± 4.6 s
